Laboratory results as given in publication PMC6009889, “Kinetic and structural studies on the interactions of Torpedo californica acetylcholinesterase with two donepezil-like rigid analogues” (Journal of Enzyme Inhibition and Medicinal Chemistry, 2018).
Where two headings read alike, the source gives them in different places.

How the values were obtained:
mouse BACE-1 = conditions: read-out: IC50 for mouse BACE-1 inhibition; cited from earlier work
[1] = target: Torpedo californica AChE (TcAChE) (Tetronarce californica, UniProt P04058); assay: biochemical; assay type: biochemical; conditions: for Type of inhibition: Lineweaver-Burk, Dixon and Cornish-Bowden plots
Protocol: The enzymatic activity of TcAChE was evaluated spectrophotometrically at room temperature by Ellman’s method[42] using a GE Ultrospec 7000 double beam spectrophotometer. […] The reaction was initiated by addition to the reaction mixture of the substrate acetylthiocoline (Sigma-Aldrich, Milan, Italy). To gain insights into the mechanism of action of 1, 2 and DNP, reciprocal plots of 1/velocity versus 1/[substrate] were constructed at substrate concentration in the 10–200 µM range. Data points are average values of three replicates. Three concentrations of inhibitors were selected for this study: 5, 10, and 20 nM. The plots were assessed by a weighted least-squares analysis that assumed the variance of the velocity (v) to be a constant percentage of v for the entire data set. Calculation of the inhibitor constant (Ki) value was carried out by re-plotting slopes of lines from the Lineweaver–Burk plot versus the inhibitor concentration and Ki was determined as the intersect on the negative x-axis. The apparent Ki’ (dissociation constant for the enzyme–substrate–inhibitor complex) value was determined by plotting the apparent 1/vmax versus inhibitor concentration. Data analyzes were performed with Graph 4.4.2.

Chain of Torpedo californica AChE (TcAChE) (P04058 22-586): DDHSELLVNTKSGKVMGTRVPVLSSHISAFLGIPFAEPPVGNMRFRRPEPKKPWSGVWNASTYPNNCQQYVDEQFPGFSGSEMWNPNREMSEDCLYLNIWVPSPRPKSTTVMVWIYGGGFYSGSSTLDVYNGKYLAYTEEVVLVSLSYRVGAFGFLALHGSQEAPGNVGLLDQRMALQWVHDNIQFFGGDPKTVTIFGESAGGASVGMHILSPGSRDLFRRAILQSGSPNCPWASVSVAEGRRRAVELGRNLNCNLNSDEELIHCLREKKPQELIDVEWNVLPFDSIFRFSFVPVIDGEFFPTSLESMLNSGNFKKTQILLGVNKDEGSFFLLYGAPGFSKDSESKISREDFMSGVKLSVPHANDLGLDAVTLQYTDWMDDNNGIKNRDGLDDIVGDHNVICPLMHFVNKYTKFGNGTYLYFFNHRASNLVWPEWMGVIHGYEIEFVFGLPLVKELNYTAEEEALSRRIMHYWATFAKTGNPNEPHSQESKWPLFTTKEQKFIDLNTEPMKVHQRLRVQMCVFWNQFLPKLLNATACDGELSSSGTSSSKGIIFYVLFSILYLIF

SMILES	IC50 (mouse BACE-1)	Ki [1]	Type of inhibition [1]	Ki ([1]; acetylthiocholine 10–200 µM, inhibitor 5, 10, 20 nM, K-phosphate buffer pH 7.0, room temperature, read-out: Ki (dissociation constant for free enzyme))
COc1cc2c(cc1OC)C(=O)/C(=C/C1CCN(Cc3ccccc3)CC1)C2 [compound 1]	697 nM	11.1 ± 2.88 nM	mixed-type inhibition	–
COc1ccc2c(c1)C/C(=C\C1CCN(Cc3ccccc3)CC1)C2=O [compound 2]	333 nM	–	mixed-type inhibition	29.9 ± 1.12 nM
